Assay results published in publication PMC4015405, “Specificity of the Receptor for the Major Sex Pheromone Component in Heliothis virescens” (Journal of Insect Science, 2013).

Target: T1, Or67d (Or67d^+[1]) (Drosophila melanogaster, UniProt Q9VT92)
T1 construct: native full-length receptor in trichoid T1 sensilla of living flies; with Odorant receptor coreceptor
T1 sequence (Q9VT92 1-391): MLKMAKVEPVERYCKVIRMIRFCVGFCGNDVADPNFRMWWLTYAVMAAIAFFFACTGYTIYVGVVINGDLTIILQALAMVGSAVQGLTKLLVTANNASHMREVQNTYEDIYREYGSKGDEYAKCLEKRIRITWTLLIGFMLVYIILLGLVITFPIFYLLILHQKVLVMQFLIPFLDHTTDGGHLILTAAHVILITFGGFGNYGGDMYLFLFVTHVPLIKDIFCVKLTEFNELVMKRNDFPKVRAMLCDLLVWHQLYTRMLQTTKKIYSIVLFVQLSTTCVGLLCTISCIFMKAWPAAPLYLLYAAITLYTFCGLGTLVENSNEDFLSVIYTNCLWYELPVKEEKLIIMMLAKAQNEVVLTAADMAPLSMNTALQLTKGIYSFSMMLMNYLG
T1 sequence (Q9VNB5 1-486 partner): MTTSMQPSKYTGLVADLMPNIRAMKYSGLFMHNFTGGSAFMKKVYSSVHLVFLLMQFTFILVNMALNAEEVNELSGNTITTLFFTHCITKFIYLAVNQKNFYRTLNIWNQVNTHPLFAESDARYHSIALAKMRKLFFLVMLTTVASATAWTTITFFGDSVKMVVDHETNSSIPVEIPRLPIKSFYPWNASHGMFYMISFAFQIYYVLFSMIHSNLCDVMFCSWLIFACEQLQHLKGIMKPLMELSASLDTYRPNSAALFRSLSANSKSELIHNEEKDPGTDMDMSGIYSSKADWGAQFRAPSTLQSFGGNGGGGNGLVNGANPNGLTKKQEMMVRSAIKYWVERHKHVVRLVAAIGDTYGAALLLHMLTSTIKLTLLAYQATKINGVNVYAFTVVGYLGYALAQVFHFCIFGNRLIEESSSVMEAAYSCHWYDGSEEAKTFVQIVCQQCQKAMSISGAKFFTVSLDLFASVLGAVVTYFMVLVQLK
Assay: single sensillum recording, Drosophila T1 trichoid sensilla
Type: cell-based
Conditions: 10 μg source dose on filter paper; agonist; n = 7

spikes/sec: 87 ± 15.87 spikes/sec
SMILES: CCCC/C=C\CCCCCCCCCCOC(C)=O [Z11-16:OAc, (Z)-11-hexadecenyl acetate]
